Laboratory results reported in ChEMBL document CHEMBL1128904, “Synthesis and biological activity of 1-alkylcarbonylmethyl analogues of YM022” (Bioorg Med Chem Lett, 1996).
Calls of active or inactive are those of the source. No cut-off for these calls is given here.

Columns and labels:
[1] = biological target: T1, Gastrin/cholecystokinin type B receptor (Rattus norvegicus, UniProt P30553); assay: Ability to displace [125I]CCK-8 from gastrin/Cholecystokinin type B receptor from rat brain; format: tissue-based
T1 sequence (P30553 whole entry): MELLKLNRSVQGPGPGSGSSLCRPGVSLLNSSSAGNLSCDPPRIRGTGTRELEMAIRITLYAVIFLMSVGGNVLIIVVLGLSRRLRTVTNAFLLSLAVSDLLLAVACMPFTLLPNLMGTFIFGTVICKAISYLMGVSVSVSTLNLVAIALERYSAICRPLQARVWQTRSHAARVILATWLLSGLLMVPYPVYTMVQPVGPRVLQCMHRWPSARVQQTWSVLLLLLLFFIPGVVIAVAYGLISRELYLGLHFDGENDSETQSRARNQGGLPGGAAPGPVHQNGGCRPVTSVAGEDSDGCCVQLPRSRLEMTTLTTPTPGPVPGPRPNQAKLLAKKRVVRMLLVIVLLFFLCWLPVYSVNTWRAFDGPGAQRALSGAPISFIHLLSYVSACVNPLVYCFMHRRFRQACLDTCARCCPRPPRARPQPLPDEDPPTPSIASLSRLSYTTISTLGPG

Rattus norvegicus [2] = assay: Compound was evaluated for in vivo inhibition of pentagastrin induced gastric acid secretion in rats after iv administration at dose of 0.03 umol/kg; format: functional; settings: Stomach
Rattus norvegicus [3] = assay: Compound was evaluated for in vivo inhibition of pentagastrin induced gastric acid secretion in rats after id administration at dose of 0.3 umol/kg; Not determined; format: functional, organism-based; settings: Stomach
Rattus norvegicus [4] = assay: Compound was evaluated for in vivo inhibition of pentagastrin induced gastric acid secretion in rats by 50% after iv administration; format: functional; settings: Stomach
Rattus norvegicus [5] = assay: Compound was evaluated for in vivo inhibition of pentagastrin induced gastric acid secretion in rats after id administration at dose of 0.3 umol/kg; format: functional; settings: Stomach
[6] = biological target: T2, Cholecystokinin receptor type A (Rattus norvegicus, UniProt P30551); assay: Compound was evaluated for its ability to displace [3H]L-364718 from Cholecystokinin type A receptor from rat pancreas
T2 sequence (P30551 whole entry): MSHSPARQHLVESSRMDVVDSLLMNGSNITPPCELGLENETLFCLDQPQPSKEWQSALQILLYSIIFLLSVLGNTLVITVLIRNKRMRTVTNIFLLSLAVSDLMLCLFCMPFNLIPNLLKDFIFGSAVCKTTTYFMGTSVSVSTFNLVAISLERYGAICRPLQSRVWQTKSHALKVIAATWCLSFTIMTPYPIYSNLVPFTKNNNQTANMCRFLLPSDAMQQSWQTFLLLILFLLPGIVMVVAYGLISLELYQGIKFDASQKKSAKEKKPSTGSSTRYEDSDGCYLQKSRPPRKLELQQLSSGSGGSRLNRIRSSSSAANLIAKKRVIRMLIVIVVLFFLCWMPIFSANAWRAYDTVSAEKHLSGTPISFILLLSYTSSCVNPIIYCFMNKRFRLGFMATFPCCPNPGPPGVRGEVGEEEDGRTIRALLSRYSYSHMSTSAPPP

Rattus norvegicus [7] = assay: Compound was evaluated for in vivo inhibition of pentagastrin induced gastric acid secretion in rats after iv administration at dose of 0.1 umol/kg; format: functional; settings: Stomach
Rattus norvegicus [8] = assay: Compound was evaluated for inhibition of pentagastrin induced gastric acid secretion in rats by 50% after iv administration; format: functional; settings: Stomach
Rattus norvegicus [9] = assay: Compound was evaluated for inhibition of pentagastrin induced gastric acid secretion in rats after id administration at dose of 0.3 umol/kg; format: functional; settings: Stomach

| Structure (SMILES) | IC50 [1] [nM] | inhibition in vivo at 0.03 µmol/kg (Rattus norvegicus [2]) [%] | other results |
| --- | --- | --- | --- |
| Cc1cccc(NC(=O)NC2N=C(c3ccccc3)c3ccccc3N(CC(=O)CC3CCCCC3)C2=O)c1 (configuration not stated) | 0.28 |  |  |
| Cc1cccc(NC(=O)N[C@H]2N=C(c3ccccc3)c3ccccc3N(CC(=O)C3CCCC3)C2=O)c1 | 6.1 |  |  |
| Cc1cccc(NC(=O)NC2N=C(c3ccccc3)c3ccccc3N(CC(=O)C(C)(C)C3CCCCC3)C2=O)c1 (configuration not stated) | 0.86 |  |  |
| Cc1cccc(NC(=O)NC2N=C(c3ccccc3)c3ccccc3N(CC(=O)C3CCCCCC3)C2=O)c1 (configuration not stated) | 2 | 53.5 |  |
| Cc1cccc(NC(=O)NC2N=C(c3ccccc3)c3ccccc3N(CC(=O)C3(C)CCCC3)C2=O)c1 (configuration not stated) | 0.1 |  |  |
| Cc1cccc(NC(=O)NC2N=C(c3ccccc3)c3ccccc3N(CC(=O)C3(C)CC3)C2=O)c1 (configuration not stated) | 0.41 |  |  |
| CCC(C)(C)C(=O)CN1C(=O)C(NC(=O)Nc2cccc(C)c2)N=C(c2ccccc2)c2ccccc21 (configuration not stated) | 0.57 |  |  |
| Cc1cccc(NC(=O)NC2N=C(c3ccccc3)c3ccccc3N(CC(=O)C3(C)CCCCC3)C2=O)c1 (configuration not stated) | 0.38 |  |  |
| Cc1cccc(NC(=O)N[C@@H]2N=C(c3ccccc3)c3ccccc3N(C)C2=O)c1 [L-365260] |  | 0 | inhibition (Rattus norvegicus [3]): inactive; ED50 (Rattus norvegicus [4]): 4.23 µmol/kg |
| Cc1cccc(NC(=O)N[C@@H]2N=C(c3ccccc3)c3ccccc3N(CC(=O)C3CCCC3)C2=O)c1 |  | 79.9 | inhibition in vivo at 0.3 µmol/kg (Rattus norvegicus [5]): 31% |
| Cc1cccc(NC(=O)NC2N=C(c3ccccc3)c3ccccc3N(CC(=O)C(C)C)C2=O)c1 (configuration not stated) | 2.1 |  |  |
| Cc1cccc(NC(=O)N[C@@H]2N=C(c3ccccc3)c3ccccc3N(CC(=O)c3ccccc3C)C2=O)c1 | 0.11 | 80 | inhibition in vivo at 0.3 µmol/kg (Rattus norvegicus [5]): 16%; ED50 (Rattus norvegicus [4]): 0.0078 µmol/kg; IC50 [6]: 146 nM |
| Cc1cccc(NC(=O)NC2N=C(c3ccccc3)c3ccccc3N(CC(=O)C3CCCCC3)C2=O)c1 (configuration not stated) | 0.4 |  | inhibition in vivo at 0.1 µmol/kg (Rattus norvegicus [7]): 67% |
| Cc1cccc(NC(=O)NC2N=C(c3ccccc3)c3ccccc3N(CC(=O)C3CCCC3)C2=O)c1 (configuration not stated) | 0.23 | 65.2 | ED50 (Rattus norvegicus [8]): 0.0155 µmol/kg; inhibition in vivo at 0.3 µmol/kg (Rattus norvegicus [9]): 36% |
| Cc1cccc(NC(=O)NC2N=C(c3ccccc3)c3ccccc3N(CC(=O)C3CCC3)C2=O)c1 (configuration not stated) | 2.37 |  |  |
| CCC(CC)C(=O)CN1C(=O)C(NC(=O)Nc2cccc(C)c2)N=C(c2ccccc2)c2ccccc21 (configuration not stated) | 1.9 |  |  |
| Cc1cccc(NC(=O)NC2N=C(c3ccccc3)c3ccccc3N(CC(=O)C(C)(C)C)C2=O)c1 (configuration not stated) | 0.52 | 76.7 | inhibition in vivo at 0.3 µmol/kg (Rattus norvegicus [5]): 80%; ED50 (Rattus norvegicus [4]): 0.0057 µmol/kg |
